# Assay results: article PMC12728616, “Regioselective Glycosylation of Fluorine-18-Labeled Sorbitol for Enhanced Bacterial Detection In Vivo Using PET” (JACS Au, 2025)
# Experiments:
# [1] = tested on: S. aureus; set-up: method as in previously reported S. aureus sensitive PET tracers; details: S. aureus infection; ref previously reported S. aureus sensitive PET tracers; cited from earlier work
# [2] = tested on: Gram-positive bacteria; assay: In vitro uptake of 18F-tracers across the Gram-positive panel; type: cell-based; details: panel of Gram-positive pathogens; FLT/FCT except E. faecalis; FMT versus FNT
# Protocol: (§1) In vitro evaluation of ^18F-tracers was conducted according to our established procedure. Briefly, bacteria were incubated overnight at 37 °C, subcultured into a fresh medium at an initial OD600 of 0.05, and then allowed to reach the mid log phase (OD600 ∼ 0.4). The cultures were subsequently incubated with ^18F-tracers (final concentration: 0.1 MBq/mL) at 37 °C for 90 min. Subsequently, 300 μL aliquots of these cultures were centrifuged at 13,200 rpm for 6 min. The resulting pellets were washed with 300 μL of phosphate-buffered saline (PBS). The radioactivity of the pellets and supernatants was measured using a gamma counter. Uptake values were normalized to colony-forming units (CFUs).
# [3] = Dynamic PET/CT and ex vivo biodistribution in uninfected mice; details: uninfected mice
# Protocol: To assess the effect of [^18F]-FDS glycosylation on tissue uptake in vivo, we performed dynamic PET/CT scans for 90 min after the intravenous injection of [^18F]-FNT, [^18F]-FMT, and [^18F]-FDS in uninfected mice, followed by ex vivo analysis.
# (§2) μPET/CT imaging was conducted using a nanoScan μPET/CT instrument (PET123S/CT1512, Mediso). Mice were anesthetized with 2% isoflurane/oxygen for intravenous administration of ^18F-tracers (∼5 MBq in 150 μL) via tail vein and maintained during data acquisition. PET data of uninfected mice were acquired in the list mode for 90 min, starting immediately after ^18F-tracer administration, followed by a CT scan. The PET data were reconstructed into three-dimensional volumes and coregistered with CT images using manufacturer-provided software in 53 dynamic frames (15 × 2 s, 6 × 5 s, 6 × 10 s, 4 × 30 s, 6 × 30 s, and 16 × 300 s). PET data of infected mice were acquired for 20 min, starting at 70 min postinjection of ^18F-tracer (mid time 80 min), followed by a CT scan. The list mode PET data were reconstructed into three-dimensional volumes in a single static frame. All PET scans were corrected for ^18F decay, dead time, and random coincidences and reconstructed into a 160 × 160 × 184 matrix with voxel size 0.8 mm using a three-dimensional ordered subject expectation maximization (OSEM) algorithm (40 iterations, 1 subset). Both attenuation and scatter corrections were applied to PET reconstructions using the coregistered CT. ROIs were drawn manually around the brain, lungs, liver, kidney, and urinary bladder using Amide software to generate image-derived TACs. For the estimation of blood pool radioactivity over time, ROIs were drawn on the left atrium. To estimate the plasma half-life of tracers, the TAC of the blood pool was fitted to a two-compartment model using a biexponential decay function: C t(t) = Ae ^–αt + Be ^ ‑βt , where C t(t) is the tracer concentration (% IDcc^–1) at time (t), A and B are the intercepts, and α and β are the distribution and elimination rate constants, respectively. , Quantitative uptake values are expressed as % IDcc^–1, representing the percent of the total injected dose per cubic centimeter. For the S. aureus myositis model, identical volume ROIs were drawn corresponding to the peak uptake of [^18F]-FNT at the live S. aureus inoculated site and heat-killed S. aureus inoculated site, respectively.
# [4] = tested on: K. pneumoniae; assay: PET/CT in K. pneumoniae pneumonia murine model; type: in vivo, mice
# Protocol: Given promising low background signals in uninfected mice, we further evaluated [^18F]-FNT and [^18F]-FMT in two different clinically relevant mouse models of lung and muscle infections. […] PET scanning was performed at 24 h postintranasal bacterial installation (Figure A). […] The ROI-derived infected/uninfected lung ratios of [^18F]-FDS, [^18F]-FMT, and [^18F]-FNT were approximately 3.2, 6.1, and 5.9-fold, respectively (Figure C), also supported by the ex vivo infected/uninfected lung ratio of [^18F]-FDS (∼1.6-fold), [^18F]-FMT (∼5.7-fold), and [^18F]-FNT (∼5.7-fold) (Figure D). Post-PET scans, infected lungs were harvested to determine colony forming units (CFUs). No significant differences in bacterial counts were observed among [^18F]-FDS, [^18F]-FMT, and [^18F]-FNT (Figure E). To confirm radiotracer specificity, we also evaluated mice inoculated with 10x heat-killed K. pneumoniae into lungs (Supporting Information Figure S5A–C).
# (§3) All animal procedures were conducted in accordance with UCSF institutional guidelines and were approved by the Institutional Animal Care and Use Committee (IACUC). Female CBA/J mice (9 and 11 weeks old) were used for the study. Pulmonary infection and bacterial myositis models were established based on previously published protocols. , For pulmonary infection, 50 μL of K. pneumoniae (5 × 10^6 CFU) or 10× heat-killed K. pneumoniae were administered intranasally under anesthesia 24 h prior to imaging using PET. After PET scans, infected lungs were homogenized in PBS and plated on LB agar. Plates were incubated overnight at 37 °C to quantify the bacterial burden. For the bacterial myositis model, mice were intramuscularly injected with either 1 × 10^6 CFUs of live S. aureus (MSSA or MRSA) or 1 × 10^7 CFUs of heat-killed bacteria (50 μL) into the left and right deltoid muscles, respectively, 10 h prior to imaging using PET. Immediately following all imaging studies, target tissues were harvested, and radioactivity was measured using a gamma counter.
# as §2, with “For the S. aureus myositis model, identical volume ROIs were drawn corresponding to the peak uptake of [^18F]-FNT at the live S. aureus inoculated site and heat-killed S. aureus inoculated site, respectively.” left out
# [5] = tested on: Enterococcus faecalis; assay: In vitro uptake of 18F-tracers by bacteria; type: cell-based; details: E. faecalis; 37 °C, 90 min
# Protocol: as §1
# [6] = tested on: MRSA; assay: PET/CT in MRSA myositis murine model; type: in vivo, mice; details: MRSA myositis
# Protocol: We next compared [^18F]-FNT and [^18F]-FMT PET in a S. aureus myositis model. […] To compare the in vivo detection sensitivity of [^18F]-FNT and [^18F]-FMT in a MRSA myositis model, we injected the left deltoid with live MRSA and the right deltoid with 10x heat-killed MRSA, respectively (Figure B).
# as §3, with “For the bacterial myositis model, mice were intramuscularly injected with either 1 × 10^6 CFUs of live S. aureus (MSSA or MRSA) or 1 × 10^7 CFUs of heat-killed bacteria (50 μL) into the left and right deltoid muscles, respectively, 10 h prior to imaging using PET.” left out
# as §2
# [7] = in vivo; cited from earlier work
# [8] = tested on: K. pneumoniae; assay: In vitro uptake of 18F-tracers by bacteria; type: cell-based, Klebsiella pneumoniae
# Protocol: as §1
# [9] = blood pool TAC, two-compartment fit
structure (smiles),measurement,setting,value
N[C@H](C[18F])C(=O)O [D-[18F]FAla],target-to-nontarget ratio,[1],~2 fold
"OC[C@@H](O)[C@@H](O)[C@H](O)[C@@H]([18F])CO [[18F]FDS, 2-deoxy-2-[18F]fluoro-D-sorbitol, reference compound]",in vitro uptake in Gram-positive bacteria,[2],not taken up
same,area under the curve (AUC0→90min) in bladder,[3]; i.v.,36165.8 ± 3961.5 % IDcc^–1·min
same,area under the curve (AUC0→90min) in liver,[3]; i.v.,289.4 ± 21.3 % IDcc^–1·min
same,peak uptake (Cmax) in bladder,"[3]; i.v., dynamic PET 90 min",525.5 ± 37.0 % IDcc^–1
same,peak uptake (Cmax) in kidneys,"[3]; i.v., dynamic PET 90 min",71.3 ± 9.7 % IDcc^–1
same,peak uptake (Cmax) in liver,"[3]; i.v., dynamic PET 90 min",28.6 ± 5.0 % IDcc^–1
same,elimination half-life (T1/2β),[3]; [9],18.74 min
same,plasma distribution half-life (T1/2α),[3]; [9],0.43 min
same,ex vivo infected/uninfected lung ratio,[4]; ex vivo gamma counting after PET,~1.6 fold
same,ROI-derived infected/uninfected lung ratio,"[4]; in vivo PET, 80 min postinjection (mid time), 24 h after intranasal K. pneumoniae",approximately 3.2 fold
same,in vitro uptake,[5],accumulated
N[C@H](CC[11C](N)=O)C(=O)O [D-[5-11C]-Gln],target-to-nontarget ratio,[1],~2.3 fold
OC[C@@H](O)[C@@H](O)[C@H](O)[C@H]([18F])CO [[18F]FMtl],target-to-nontarget ratio,[1],~4 fold
OCC1OC(OC2C(CO)OC(O)C([18F])C2O)C(O)C(O)C1O (stereo not drawn) [[18F]FDM],target-to-nontarget ratio,[1],~6 fold
"OCC1OC(OC2C(O)C(CO)OC(O)C2[18F])C(O)C(O)C1O (stereo not drawn) [[18F]FSK, reference compound]","ratio of live/heat-killed S. aureus inoculated sites, in vivo",[6]; PET 80 min postinjection (mid time),28 fold
same,"ratio of live/heat-killed S. aureus inoculated sites, ex vivo",[6]; ex vivo analysis,17 fold
same,target-to-nontarget ratio,[1],~7 fold
[2H]C([2H])([18F])[C@@]([2H])(N)C(=O)O [D-[18F]FAla-d3],target-to-nontarget ratio,[1],~2.4 fold
[11CH3][C@@H](N)C(=O)O [D-[3-11C]Ala],target-to-nontarget ratio,[1],~4 fold
OC[C@H]1OC(O)[C@H]([18F])[C@@H](O)[C@@H]1O (stereo partly drawn) [[18F]FDG],known effective dose,[7],0.017 mSv/MBq
Nc1ccc(C(=O)O)c([18F])c1 [2-[18F]F-PABA],target-to-nontarget ratio,[1],~8 fold
[11CH3]SCC[C@@H](N)C(=O)O [D-[11C]Met],target-to-nontarget ratio,[1],~10 fold
"OC[C@@H](O)[C@@H](O[C@@H]1O[C@H](CO)[C@@H](O)[C@H](O)[C@H]1O)[C@H](O)[C@@H]([18F])CO [[18F]FCT, 2-deoxy-2-[18F]fluoro-D-cellobiotol]",in vitro uptake in Gram-positive bacteria,[2],negligible uptake
same,in vitro uptake,[8],poorly taken up
Nc1ccc([11C](=O)O)cc1 [[11C]PABA],target-to-nontarget ratio,[1],~28 fold
OCCOCc1ccc(-c2noc(-c3ccc(OCC[18F])c(C(F)(F)F)c3)n2)cc1 [[18F]TZ4877],target-to-nontarget ratio,[1],~1.3 fold
